Experimental findings from patent publication US10709709B2, “Substituted carbonucleoside derivatives useful as anticancer agents” (Pfizer Inc., priority 2016, dated 2020) are described below.

Each structure is given as a SMILES string. Some results are limits rather than exact numbers.

PRMT5/MEP50 protein complex, sequence (O14744 other isoform, or with tags, fused parts or gaps): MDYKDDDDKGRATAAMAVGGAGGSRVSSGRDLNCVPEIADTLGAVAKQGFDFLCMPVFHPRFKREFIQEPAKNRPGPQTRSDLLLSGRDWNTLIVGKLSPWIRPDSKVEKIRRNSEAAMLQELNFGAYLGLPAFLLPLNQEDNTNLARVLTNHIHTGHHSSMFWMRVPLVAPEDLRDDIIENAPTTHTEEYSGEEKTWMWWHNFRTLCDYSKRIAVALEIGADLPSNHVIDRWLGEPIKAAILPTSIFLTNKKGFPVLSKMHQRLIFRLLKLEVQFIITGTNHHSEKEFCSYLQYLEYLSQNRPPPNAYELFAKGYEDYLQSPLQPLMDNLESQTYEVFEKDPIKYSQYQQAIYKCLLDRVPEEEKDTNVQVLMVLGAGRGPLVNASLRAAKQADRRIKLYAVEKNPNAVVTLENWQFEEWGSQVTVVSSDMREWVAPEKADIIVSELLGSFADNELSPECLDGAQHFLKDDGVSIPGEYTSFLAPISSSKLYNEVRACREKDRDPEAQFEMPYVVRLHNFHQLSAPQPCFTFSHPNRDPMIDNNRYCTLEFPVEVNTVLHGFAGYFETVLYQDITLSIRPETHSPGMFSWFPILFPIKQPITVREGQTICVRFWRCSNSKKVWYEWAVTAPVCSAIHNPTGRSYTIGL
PRMT5/MEP50 protein complex, sequence (Q9BQA1 whole entry partner): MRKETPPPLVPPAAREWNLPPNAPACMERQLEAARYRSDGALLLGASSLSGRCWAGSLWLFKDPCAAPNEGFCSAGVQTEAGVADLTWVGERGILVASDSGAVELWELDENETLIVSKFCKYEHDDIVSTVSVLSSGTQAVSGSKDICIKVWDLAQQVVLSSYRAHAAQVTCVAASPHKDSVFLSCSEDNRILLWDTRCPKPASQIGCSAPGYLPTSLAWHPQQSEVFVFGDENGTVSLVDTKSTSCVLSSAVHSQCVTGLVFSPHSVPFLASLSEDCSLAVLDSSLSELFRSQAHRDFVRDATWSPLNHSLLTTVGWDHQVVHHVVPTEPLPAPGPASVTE

The target in the experiment is PRMT5/MEP50 protein complex (Homo sapiens (Human), UniProt O14744). The experiment is described as follows: PRMT5 biochemical assay (3H-SAM methylation of H4(1-21) peptide, filter plate scintillation). Conditions: 10 nM PRMT5/MEP50 complex, 200 nM H4(1-21) peptide, 1 uM SAM, 25 minute incubation at room temperature. The method, boiled down:
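Human PRMT5/MEP50 complex (10 nM) methylating H4(1-21) peptide (200 nM) with 3H/unlabelled SAM (1 uM final) in pH 8.5 Tris buffer, 25 min at room temperature. Stopped with TCA, 3H-peptide captured on filter plates and scintillation-counted. IC50 from 4-parameter fit.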
As a reminder, the IC50 is the concentration needed to halve the response being measured. Regarding `Cc1ncnc2c1ccn2[C@@H]1C[C@H]([C@@H](O)c2ccc(Cl)cc2)[C@@H](O)[C@H]1O` [Example 12, (1S,2R,3R,5R)-3-[(R)-(4-chlorophenyl) (hydroxy)methyl]-5-(4-methyl-7H-pyrrolo[2,3-d]pyrimidin-7-yl)cyclopentane-1,2-diol], the IC50 is 0.478 µM.

Compound `Cc1ncnc2c1ccn2[C@@H]1C[C@H](Oc2cccc3ccncc23)[C@@H](O)[C@H]1O` [Example 172, (1S,2S,3S,5R)-3-(isoquinolin-8-yloxy)-5-(4-methyl-7H-pyrrolo[2,3-d]pyrimidin-7-yl)cyclopentane-1,2-diol] displayed an IC50 of 1.28 µM.

Turning to `Cc1ncnc2c1ccn2[C@@H]1C[C@H]([C@@H](O)c2ccc(F)c(F)c2)[C@@H](O)[C@H]1O` [Example 4, (1S,2R,5R)-3-[(R)-(3,4-difluorophenyl) (hydroxy)methyl]-5-(4-methyl-7H-pyrrolo[2,3-d]pyrimidin-7-yl)cyclopentane-1,2-diol], the IC50 came to 0.681 µM.

Consider `CCOc1cc(O[C@H]2C[C@@H](n3ccc4c(C)ncnc43)[C@H](O)[C@@H]2O)c2c(c1F)CCNC2` [Example 199, (1S,2S,3S,5R)-3-((6-ethoxy-5-fluoro-1,2,3,4-tetrahydroisoquinolin-8-yl)oxy)-5-(4-methyl-7H-pyrrolo[2,3-d]pyrimidin-7-yl)cyclopentane-1,2-diol], for which 0.091 µM corresponded to half-maximal inhibition (IC50).

`Cc1ncnc2c1ccn2[C@@H]1C[C@H](Oc2cccc(C(F)(F)F)c2CN)[C@@H](O)[C@H]1O` [Example 144, (1S,2S,3S,5R)-3-(2-(aminomethyl)-3-(trifluoromethyl)phenoxy)-5-(4-methyl-7H-pyrrolo[2,3-d]pyrimidin-7-yl)cyclopentane-1,2-diol]: the half-maximal inhibitory concentration (IC50) came out at 0.077 µM.

`Cc1ncnc2c1ccn2[C@@H]1C[C@H](Oc2cccc3c2[C@@H](N)CC3)[C@@H](O)[C@H]1O` [Example 141, (1S,2S,3S,5R)-3-(((S)-3-amino-2,3-dihydro-1H-inden-4-yl)oxy)-5-(4-methyl-7H-pyrrolo[2,3-d]pyrimidin-7-yl)cyclopentane-1,2-diol] displayed an IC50 of 3.93 µM.

The compound `Cc1ncnc2c1ccn2[C@@H]1C[C@H](Oc2ccccc2CN)[C@@H](O)[C@H]1O` [Example 62, (1S,2S,3S,5R)-3-(2-(aminomethyl)phenoxy)-5-(4-methyl-7H-pyrrolo[2,3-d]pyrimidin-7-yl)cyclopentane-1,2-diol] came in with an IC50 of 0.025 µM.

In turn, `Cc1nc(N)nc(N(C)[C@@H]2C[C@H]([C@@H](O)c3ccc(F)c(F)c3)[C@@H](O)[C@H]2O)n1` [Example 42, (1R,2S,3R,5R)-3-[(4-amino-6-methyl-1,3,5-triazin-2-yl)(methyl)amino]-5-[(R)-(3,4-difluorophenyl) (hydroxy)methyl]cyclopentane-1,2-diol] returned an IC50 of 1.39 µM.

Compound `Cc1nc(N)nc2c1ccn2[C@@H]1C[C@H]([C@@H](O)c2ccc(F)c(F)c2)[C@@H](O)[C@H]1O` [Example 49, (1R,2S,3R,5R)-3-(2-amino-4-methyl-7H-pyrrolo[2,3-d]pyrimidin-7-yl)-5-[(R)-(3,4-difluorophenyl)(hydroxy)methyl]cyclopentane-1,2-diol] displayed an IC50 of 0.105 µM.

`Cc1ncnc2c1ccn2[C@@H]1C[C@H](C(C)(C)O)[C@@H](O)[C@H]1O` [Example 18, (1S,2R,3S,5R)-3-(2-hydroxypropan-2-yl)-5-(4-methyl-7H-pyrrolo[2,3-d]pyrimidin-7-yl)cyclopentane-1,2-diol] showed an IC50 of 3.7 µM.

With `Cc1cccc(CC(O)[C@H]2C[C@@H](n3ccc4c(C)ncnc43)[C@H](O)[C@@H]2O)n1` (stereo partly drawn) [Example 15, (1S,2R,3R,5R)-3-[1-hydroxy-2-(6-methylpyridin-2-yl)ethyl]-5-(4-methyl-7H-pyrrolo[2,3-d]pyrimidin-7-yl)cyclopentane-1,2-diol], the IC50 is above 200 µM.

`Nc1ncnc2c1c(F)cn2[C@@H]1C[C@H](Oc2cccc3ccncc23)[C@@H](O)[C@H]1O` [Example 162] came in with an IC50 of 0.042 µM.

As to `Cc1ncnc2c1ccn2[C@@H]1C[C@H](Oc2cccc3c2C(=O)NCCO3)[C@@H](O)[C@H]1O` [Example 163, 6-(((1S,2S,3S,4R)-2,3-dihydroxy-4-(4-methyl-7H-pyrrolo[2,3-d]pyrimidin-7-yl)cyclopentyl)oxy)-3,4-dihydrobenzo[f][1,4]oxazepin-5(2H)-one], the IC50 was above 200 µM.

On to `O[C@@H]1[C@H](O)[C@@H]([C@@H](O)c2ccc(F)c(F)c2)C[C@H]1Nc1ncnc2[nH]ccc12` [Example 28, (1S,2R,3R,5R)-3-[(R)-(3,4-difluorophenyl)(hydroxy)methyl]-5-(7H-pyrrolo[2,3-d]pyrimidin-4-ylamino)cyclopentane-1,2-diol], for which it took 5.77 µM to reach half-maximal inhibition (IC50).

As to `N#Cc1cccc2c(N[C@@H]3C[C@H](C(O)c4ccc(F)c(F)c4)[C@@H](O)[C@H]3O)ncnc12` (single isomer, unassigned) [Example 30, 4-({(1R;2S;3R;4R)-4-[(3;4-difluorophenyl)(hydroxy)methyl]-2;3-dihydroxycyclopentyl}amino)quinazoline-8-carbonitrile], the 50% inhibitory concentration (IC50) was above 200 µM.

Turning to `Cc1ncnc2c1ccn2[C@@H]1C[C@H](Oc2cccc3c2CN(C)C3)[C@@H](O)[C@H]1O` [Example 82, (1S,2S,3S,5R)-3-[(2-methyl-2,3-dihydro-1H-isoindol-4-yl)oxy]-5-(4-methyl-7H-pyrrolo[2,3-d]pyrimidin-7-yl)cyclopentane-1,2-diol], the IC50 was 0.991 µM. In other words, the sub-micromolar range.

In turn, `Cc1ncnc2c1ccn2[C@@H]1C[C@H]([C@@H](O)c2ccc(F)cc2)[C@@H](O)[C@H]1O` [Example 10, (1S,2R,3R,5R)-3-[(R)-(4-fluorophenyl) (hydroxy)methyl]-5-(4-methyl-7H-pyrrolo[2,3-d]pyrimidin-7-yl)cyclopentane-1,2-diol] yielded an IC50 of 0.941 µM. This IC50 and that of the compound before are within 1.5-fold of each other.

As to `Cc1ncnc2c1ccn2[C@@H]1C[C@H]([C@@H](O)c2cc(F)c(F)c(F)c2)[C@@H](O)[C@H]1O` [Example 14, (1S,2R,3R,5R)-3-[(R)-hydroxy(3,4,5-trifluorophenyl)methyl]-5-(4-methyl-7H-pyrrolo[2,3-d]pyrimidin-7-yl)cyclopentane-1,2-diol], it took 0.719 µM to reach half-maximal inhibition (IC50).

As for `CN(c1cc(N)ncn1)[C@@H]1C[C@H]([C@H](O)c2ccc(F)c(F)c2)[C@@H](O)[C@H]1O` [Example 43, (1R,2S,3R,5R)-3-[(6-aminopyrimidin-4-yl)(methyl)amino]-5-[(S)-(3,4-difluorophenyl) (hydroxy)methyl]cyclopentane-1,2-diol], the IC50 came to 0.879 µM.

In turn, `Cc1ncnc2c1ccn2[C@@H]1C[C@H](Oc2ccc(F)cc2O)[C@@H](O)[C@H]1O` [Example 136, (1S,2S,3S,5R)-3-(4-fluoro-2-hydroxyphenoxy)-5-(4-methyl-7H-pyrrolo[2,3-d]pyrimidin-7-yl)cyclopentane-1,2-diol] gave an IC50 of 11.1 µM.

`Nc1ncnc2c1ccn2[C@@H]1C[C@H]([C@@H](O)c2ccc(Cl)c(F)c2)[C@@H](O)[C@H]1O` [Example 24, (1R,2S,3R,5R)-3-(4-amino-7H-pyrrolo[2,3-d]pyrimidin-7-yl)-5-((R)-(4-chloro-3-fluorophenyl)(hydroxy)methyl)cyclopentane-1,2-diol] yielded an IC50 of 0.071 µM. Against the preceding compound, the IC50 is about 160-fold lower.

`Cc1ncnc2c1ccn2[C@@H]1C[C@H](Oc2cccc3c2CC(N)CO3)[C@@H](O)[C@H]1O` (single isomer, unassigned) [Example 189]: inhibition was half-maximal at 0.604 µM (IC50). Against the preceding compound, the IC50 is about 8.5-fold higher.
